# Data reported in US20150265656A1, “HUMAN ENDOCRINE PROGENITORS FROM ADULT PANCREATIC TISSUE” (THE JOHNS HOPKINS UNIVERSITY, priority 2012, published 2015).
# Peptide text beside a SMILES is read from it. * marks the point of attachment. Cbz = O=C(OCc1ccccc1)*
# How the values were obtained:
# [1] = test system: NGN3+ cells in cultured adult human pancreatic tissue; experiment: % NGN3+ nuclei/cells in cultured pancreatic tissue (immunostaining); assay type: cell-based
# Method: Human cadaveric pancreas tissue that had been enzymatically digested and subjected to density centrifugation (57) was received 2-3 days post mortem. In all experiments, stated replication refers to the number of cultures from individual organ donors unless otherwise defined. Islet purity varied between preparations from <10% to >90%. Pancreatic tissue was resuspended in 10 ml Miami Media 1A (Mediatech) supplemented with freshly prepared 0.01 g/L glutathione and cultured in low adhesion dishes at 37° C. for 4 days. Media was replaced every 2-3 days. Inhibition of γ-secretase was carried out by daily addition of N—[N-(3,5-Difluorophenacetyl-L-alanyl)]-S-phenylglycine t-butyl ester (DAPT, Tocris Biosciences) or 7-Amino-4-chloro-3-methoxyisocoumarin (JLK6, EMD Biosceinces). JAG-1 (ANASPEC), a 17-residue polypeptide corresponding to amino acids 188-204 of the Jagged-1 Notch ligand (58) and a negative control polypeptide comprised of scrambled JAG-1 amino acids were used at 47 μM. A second Notch ligand, Delta-like ligand 4 (D114)(R&D Systems) was used at 500 ng/ml. Inhibition of proteasome degradation was carried out with N-[(Phenylmethoxy)carbonyl]-L-leucyl-N-[(1S)-1-formyl-3-methylbutyl]-L-leucinamide (MG132, Tocris Bioscience) and (2R,3S,4R)-3-Hydroxy-2-[(1S)-1-hydroxy-2-methylpropyl]-4-methyl-5-oxo-2-pyrrolidinecarboxy-N-acetyl-L cysteine thioester (clasto-lactacystin beta-lactone, Tocris Bioscience). Inhibition of EGF receptor kinase was carried out with N-(3-Chlorophenyl)-6,7-dimethoxy-4-quinazolinanine hydrochloride (AG1478, Tocris Bioscience) and with N-(3-Chlorophenyl)-6,7-dimethoxy-4-quinazolinanine hydrochloride (Erlotinib, Cayman Chemical). STAT3 activation was blocked with a cell-permeable analog of the STAT3-SH2 domain-binding phosphopeptide (PpYLKTK-mts, EMD Biosciences).
# Tissues stained for NGN3 expression were sectioned and stained as soon as possible after harvest. Freshly sectioned 5-8 micron frozen sections of islet preparation tissue were fixed for 5 min. in 4% paraformaldehyde (PFA) prepared in phosphate buffered saline (PBS), quenched for 5 min in 50 mM glycine in PBS then blocked in 5% donkey serum, 1% BSA in PBS for 30 min. at room temperature. 0.1 to 0.2% Triton-X100 was included for cytoplasmic and nuclear antigens, respectively. Primary antibodies were diluted in blocking buffer; mouse anti-CD133/1 (IgG1) and CD133/2 (IgG2b) unconjugated and conjugated to phycoerythrin (Miltenyi Biotec), mouse anti-cytokeratin 19 (CK19, Chemicon), guinea pig anti-swine insulin (Dako), rabbit anti-CPEP (LINCO), mouse anti-GLU (R&D Systems), goat anti-PDX1 (gift from Chris Wright), mouse anti-CgA (Dako); goat anti-amylase (AMY, Santa Cruz), mouse anti-NGN3 (Developmental Studies Hybridoma Bank, Iowa City, Iowa, hybridoma supernatant), rabbit anti-cleaved caspase-3 (Cell Signaling Technology), rabbit Ki67 (abcam), mouse anti-human E-cadherin (Invitrogen). BrdU and EdU detection were by kit from BD Bioscience and Invitrogen, respectively. Quantitative analysis of protein expression on frozen sections was carried out by imaging >800 nuclei in randomly selected fields for each treatment group. For analysis of CD133+ cells immediately after preparative fluorescent activated cell sorting (FACS), cells were immobilized, fixed and quenched directly on glass slides using a cytospin. For identification and quantification cells within pancospheres, spheres were fixed and stained similarly to tissue sections except all incubations and washes were overnight at 4° C. Stained pancospheres were mounted on coverslipped glass slides. For quantitative analyses, unbiased stereology (Stereo Investigator software) was used to estimate number of nuclei per pancosphere. Sectioned tissue and pancospheres were imaged by confocal microscopy through the Z-axis in a series of 1 micron optical sections using sequential acquisition mode. […] Mean % CPEP, % GLU and % CgA were calculated from a total of 17 pancospheres.
# [2] = test system: HES1 mRNA; experiment: HES1 mRNA level in cultured pancreatic tissue (quantitative RT-PCR); assay type: cell-based, human; details: 4 days of culture
# Method: (§1) Human cadaveric pancreas tissue that had been enzymatically digested and subjected to density centrifugation (57) was received 2-3 days post mortem. In all experiments, stated replication refers to the number of cultures from individual organ donors unless otherwise defined. Islet purity varied between preparations from <10% to >90%. Pancreatic tissue was resuspended in 10 ml Miami Media 1A (Mediatech) supplemented with freshly prepared 0.01 g/L glutathione and cultured in low adhesion dishes at 37° C. for 4 days. Media was replaced every 2-3 days. […]
# (§2) Human adult and fetal pancreas RNA was commercially prepared. […] Levels of HES 1, PTF1A, PDX1, NGN3 and CYCLOPHILLIN A were determined by using Taqman® gene expression assays Hs00172878_m1, Hs00603586_g1, Hs00426216_m1, Hs00360700_g1 and Hs99999904_m1, respectively. Mean levels (6 readings/sample) of genes of interest were normalized to mean levels of CYCLOPHILLIN A. MicroRNAs hsa-mir-15a, hsa-mir-15b, hsa-mir-16 and hsa-mir-195 levels were measured using sequence specific reverse transcriptase primers and TaqMan® detection reagents (Applied Biosystems). Mean levels (6 readings/sample) of miRNAs were normalized to mean levels of 18S rRNA (Applied Biosystems Ribosomal RNA Reagent). Significance of RTPCR data was determined by ANOVA with Bonferroni-Holm Post hoc testing.
# [3] = test system: PTF1A mRNA; experiment: PTF1A mRNA level in cultured pancreatic tissue (quantitative RT-PCR); assay type: cell-based, human; details: 4 days of culture
# Method: as §1, §2
# [4] = test system: NGN3 mRNA; experiment: NGN3 mRNA level in cultured pancreatic tissue (quantitative RT-PCR); assay type: cell-based, human; details: 4 days of culture
# Method: as §1, §2
# [5] = test system: pancospheres from CD133+/NGN3+ cells; experiment: Pancosphere endocrine maturation, hormone-expressing cells; assay type: cell-based, human; details: maturation media with 10 μM MPA
# Method: To form pancospheres, CD133+ cells were resuspended at 2×10^5 cells/ml in HuES media [Knockout DMEM (Invitrogen), 10% Knockout Serum Replacement (Invitrogen), 10% Albumax, 10 ng/ml fibroblast growth factor 2 (FGF2), 1×Na pyruvate, and 1× non-essential amino acids] conditioned by overnight incubation on human SDEC cells (59, 60) and 1-2% Matrigel. Media was supplemented every 3-4 days for up to 21 days. Media was then changed to Maturation media [RPMI 1640, 0.5% BSA, 10 mM nicotinamide, 50 ng/ml human insulin like growth factor II (IGF II, R&D Systems)] for 7 days with addition of fresh nicotinamide and IGF II every 2 days without media change. IGF II was then slowly withdrawn by subsequent 50% media changes. […]
# Tissues stained for NGN3 expression were sectioned and stained as soon as possible after harvest. […] Quantitative analysis of protein expression on frozen sections was carried out by imaging >800 nuclei in randomly selected fields for each treatment group. […] For identification and quantification cells within pancospheres, spheres were fixed and stained similarly to tissue sections except all incubations and washes were overnight at 4° C. […] For quantitative analyses, unbiased stereology (Stereo Investigator software) was used to estimate number of nuclei per pancosphere. […] Mean % CPEP, % GLU and % CgA were calculated from a total of 17 pancospheres.
compound,measurement,setting,value
"CC(C)C[C@@H](C=O)NC(=O)[C@H](CC(C)C)NC(=O)[C@H](CC(C)C)NC(=O)OCc1ccccc1 [MG132, N-[(Phenylmethoxy)carbonyl]-L-leucyl-N-[(1S)-1-formyl-3-methylbutyl]-L-leucinamide] (Cbz-Leu-Leu-Leu-aldehyde)","% NGN3+ cells, % of carrier control","[1]; 1 μM MG132, 4 days",182.8%±14.9
same,"% NGN3+ cells, % of carrier control","[1]; 10 μM MG132, 4 days",478.8%±33.6
same,"% NGN3+ cells, % of carrier control","[1]; 20 μM MG132, 4 days",533.6%±28.9
C#Cc1cccc(Nc2ncnc3cc(OCCOC)c(OCCOC)cc23)c1 [Erlotinib],% NGN3+ cells,"[1]; 0.25 μM Erlotinib, n=1, data not shown",31.0±4.8
"COc1oc(=O)c2cc(N)ccc2c1Cl [JLK6, 7-Amino-4-chloro-3-methoxyisocoumarin]",effect on % of cells expressing NGN3 protein,"[1]; JLK6 treatment, 4 days",No significant effect
TGFα: EGF receptor ligand added to culture,change of % NGN3+ cells,[1]; addition of TGFα 40 ng/ml,failed to significantly change
D114: Notch ligand Delta-like ligand 4 (R&D Systems),"% of NGN3+ cells, percent of carrier control","[1]; 500 ng/ml, data not shown",60.1%±11.4
"JAG-1 peptide: 17-residue polypeptide corresponding to amino acids 188-204 of the Jagged-1 Notch ligand (DDYYYGFGCNKFCRPRD; UniProt P78504 188-204, looked up, fragment)","% of cells expressing NGN3 protein, % of cells treated with scrambled peptide (SJAG)","[1]; 47 μM, 4 days",39.0%±6.5
"COc1cc2ncnc(Nc3cccc(Cl)c3)c2cc1OC.Cl [AG1478, N-(3-Chlorophenyl)-6,7-dimethoxy-4-quinazolinanine hydrochloride]","% NGN3+ cells, % of carrier control","[1]; 3 nM AG1478, 4 days",69.1%±7.3
same,"% NGN3+ cells, % of carrier control","[1]; 30 nM AG1478, 4 days",62.3%±8.2
"C[C@H](NC(=O)Cc1cc(F)cc(F)c1)C(=O)N[C@H](C(=O)OC(C)(C)C)c1ccccc1 [DAPT, N—[N-(3,5-Difluorophenacetyl-L-alanyl)]-S-phenylglycine t-butyl ester]","level of HES1 mRNA, % of carrier control",[2]; 2 μM DAPT,63.0%±3.3
same,"level of HES1 mRNA, % of carrier control",[2]; 20 μM DAPT,55.4%±1.5
same,"level of PTF1A mRNA, % of carrier control",[3]; 2 μM DAPT,331.2%±10.8
same,"level of PTF1A mRNA, % of carrier control",[3]; 20 μM DAPT,391.6%±28.8
same,"% of cells expressing NGN3 protein, % of carrier control","[1]; 2 μM DAPT, 4 days",124%±1.1
same,"% of cells expressing NGN3 protein, % of carrier control","[1]; 20 μM DAPT, 4 days",152.0%±2.2
same,effect on the D114-induced decrease of % NGN3+ cells,[1]; DAPT together with D114,blocked
same,"level of NGN3 mRNA, % of carrier control",[4]; 2 μM DAPT,927.4%±52.6
same,"level of NGN3 mRNA, % of carrier control",[4]; 20 μM DAPT,1886.3%±102.4
"COc1c(C)c2c(c(O)c1C/C=C(\C)CCC(=O)O)C(=O)OC2 [MPA, Mycophenolic acid]",% cells GLU+ in pancospheres,"[5]; carrier control 0.58%±0.2, P>0.05",1.1%±0.23
same,% cells CPEP+ in pancospheres,[5]; carrier control 1.0±0.3,2.9%±0.4
"EGF: EGF receptor ligand added to culture (NSDSECPLSHDGYCLHDGVCMYIEALDKYACNCVVGYIGERCQYRDLKWWELR; Epidermal growth factor; UniProt P01133 971-1023, looked up)",change of % NGN3+ cells,[1]; addition of EGF 20 ng/ml,failed to significantly change
